Experimental data: PubChem BioAssay AID1745844 (Carcinogenic Potency Database (CPDB), 2022)
Activity calls are given as the source filed them. How the calls were made is not given here.

System: rodent lifetime carcinogenesis bioassay, tumor incidence TD50
Assay: chronic cancer bioassays in animals – CPDB, compiled studies (AID 1745844)

## NC(=O)Cc1cccc2ccccc12
mouse, strain B6AKF1, females, oral dosing, site: any site (literature study), lesion: several types, types named in the paper, dosed 76 weeks, study length 76 weeks
  TD50: 956 mg/kg/day (inactive)
mouse, strain B6AKF1, females, oral dosing, site: liver, lesion: hepatoma, dosed 76 weeks, study length 76 weeks
  carcinogen call: negative (inactive)
mouse, strain B6AKF1, females, oral dosing, site: lung, lesion: adenoma, dosed 76 weeks, study length 76 weeks
  carcinogen call: negative (inactive)
mouse, strain B6AKF1, males, oral dosing, site: any site (literature study), lesion: several types, types named in the paper, dosed 76 weeks, study length 76 weeks
  carcinogen call: negative (inactive)
mouse, strain B6AKF1, males, oral dosing, site: liver, lesion: hepatoma, dosed 76 weeks, study length 76 weeks
  carcinogen call: negative (inactive)
mouse, strain B6AKF1, males, oral dosing, site: lung, lesion: adenoma, dosed 76 weeks, study length 76 weeks
  carcinogen call: negative (inactive)
mouse, strain B6C3F1, females, oral dosing, site: any site (literature study), lesion: several types, types named in the paper, dosed 76 weeks, study length 76 weeks
  TD50: 213 mg/kg/day (inactive)
mouse, strain B6C3F1, females, oral dosing, site: liver, lesion: hepatoma, dosed 76 weeks, study length 76 weeks
  TD50: 956 mg/kg/day (inactive)
mouse, strain B6C3F1, females, oral dosing, site: lung, lesion: adenoma, dosed 76 weeks, study length 76 weeks
  TD50: 461 mg/kg/day (inactive)
mouse, strain B6C3F1, males, oral dosing, site: any site (literature study), lesion: several types, types named in the paper, dosed 76 weeks, study length 76 weeks
  TD50: 141 mg/kg/day (inactive)
mouse, strain B6C3F1, males, oral dosing, site: liver, lesion: hepatoma, dosed 76 weeks, study length 76 weeks
  TD50: 316 mg/kg/day (inactive)
mouse, strain B6C3F1, males, oral dosing, site: lung, lesion: adenoma, dosed 76 weeks, study length 76 weeks
  TD50: 1010 mg/kg/day (inactive)

## [Cl][Fe]([Cl])[Cl]
rat, strain F344/DuCrj, females, in drinking water, site: any site (literature study), lesion: one or several types, types not named, dosed 104 weeks, study length 112 weeks
  TD50: 505 mg/kg/day (inactive)
rat, strain F344/DuCrj, females, in drinking water, site: liver, lesion: neoplastic nodule, dosed 104 weeks, study length 112 weeks
  carcinogen call: negative (inactive)
rat, strain F344/DuCrj, males, in drinking water, site: any site (literature study), lesion: one or several types, types not named, dosed 104 weeks, study length 112 weeks
  carcinogen call: negative (inactive)
rat, strain F344/DuCrj, males, in drinking water, site: liver, lesion: neoplastic nodule, dosed 104 weeks, study length 112 weeks
  TD50: 8810 mg/kg/day (inactive)

## Cc1ccc2c(-c3ccccc3)nc(=O)n(C(C)C)c2c1
mouse, strain Charles River CD1, females, in feed, site: liver, lesion: hemangioendothelial sarcoma, dosed 86 weeks, study length 86 weeks
  carcinogen call: negative (inactive)
mouse, strain Charles River CD1, females, in feed, site: liver, lesion: hemangioma, dosed 86 weeks, study length 86 weeks
  TD50: 48700 mg/kg/day (inactive)
mouse, strain Charles River CD1, females, in feed, site: liver, lesion: hepatocellular carcinoma, dosed 86 weeks, study length 86 weeks
  carcinogen call: negative (inactive)
mouse, strain Charles River CD1, females, in feed, site: lung, lesion: alveolar/bronchiolar adenoma, dosed 86 weeks, study length 86 weeks
  carcinogen call: negative (inactive)
mouse, strain Charles River CD1, females, in feed, site: lung, lesion: alveolar/bronchiolar carcinoma, dosed 86 weeks, study length 86 weeks
  carcinogen call: negative (inactive)
mouse, strain Charles River CD1, males, in feed, site: liver, lesion: hemangioma, dosed 86 weeks, study length 86 weeks
  TD50: 14000 mg/kg/day (inactive)
mouse, strain Charles River CD1, males, in feed, site: liver, lesion: hepatocellular carcinoma, dosed 86 weeks, study length 86 weeks
  TD50: 4350 mg/kg/day (inactive)
mouse, strain Charles River CD1, males, in feed, site: lung, lesion: alveolar/bronchiolar adenoma, dosed 86 weeks, study length 86 weeks
  TD50: 5450 mg/kg/day (inactive)
mouse, strain Charles River CD1, males, in feed, site: lung, lesion: alveolar/bronchiolar carcinoma, dosed 86 weeks, study length 86 weeks
  carcinogen call: negative (inactive)

## COc1c2occc2cc2ccc(=O)oc12
mouse, strain HRA/Skh (hairless), females, in feed, site: skin, lesion: several types, types named in the paper, dosed 52 weeks, study length 80 weeks
  TD50: 56.8 mg/kg/day (inactive)
mouse, strain HRA/Skh (hairless), females, in feed, site: skin, lesion: squamous-cell carcinoma, dosed 52 weeks, study length 80 weeks
  TD50: 48.9 mg/kg/day (inactive)
mouse, strain HRA/Skh (hairless), females, in feed, site: skin, lesion: squamous-cell papilloma, dosed 52 weeks, study length 80 weeks
  TD50: 151 mg/kg/day (inactive)
mouse, strain HRA/Skh (hairless), males, in feed, site: skin, lesion: several types, types named in the paper, dosed 52 weeks, study length 80 weeks
  carcinogen call: negative (inactive)
mouse, strain HRA/Skh (hairless), males, in feed, site: skin, lesion: squamous-cell carcinoma, in situ, dosed 52 weeks, study length 80 weeks
  carcinogen call: negative (inactive)
mouse, strain HRA/Skh (hairless), males, in feed, site: skin, lesion: squamous-cell carcinoma, dosed 52 weeks, study length 80 weeks
  carcinogen call: negative (inactive)
mouse, strain HRA/Skh (hairless), males, in feed, site: skin, lesion: squamous-cell papilloma, dosed 52 weeks, study length 80 weeks
  TD50: 137 mg/kg/day (inactive)
rat, strain Fischer 344, females, by gavage, site: any site (literature study), lesion: several types, types named in the paper, dosed 103 weeks, study length 105 weeks
  TD50: 45.6 mg/kg/day
rat, strain Fischer 344, females, by gavage, site: liver, lesion: hepatocellular adenoma + hepatocellular carcinoma + neoplastic nodule, dosed 103 weeks, study length 105 weeks
  TD50: 5140 mg/kg/day
rat, strain Fischer 344, females, by gavage, site: palate + tongue, lesion: squamous-cell papilloma, dosed 103 weeks, study length 105 weeks
  TD50: 333 mg/kg/day (inactive)
rat, strain Fischer 344, males, by gavage, site: Zymbal's gland, lesion: carcinoma, NOS + squamous-cell carcinoma, dosed 103 weeks, study length 105 weeks
  TD50: 101 mg/kg/day
rat, strain Fischer 344, males, by gavage, site: any site (literature study), lesion: several types, types named in the paper, dosed 103 weeks, study length 105 weeks
  TD50: 16.1 mg/kg/day
rat, strain Fischer 344, males, by gavage, site: kidney + Zymbal's gland, lesion: tubular-cell adenoma + tubular-cell adenocarcinoma + carcinoma, NOS + squamous-cell carcinoma, dosed 103 weeks, study length 105 weeks
  TD50: 27.3 mg/kg/day
rat, strain Fischer 344, males, by gavage, site: kidney, lesion: tubular-cell adenocarcinoma, dosed 103 weeks, study length 105 weeks
  TD50: 167 mg/kg/day
rat, strain Fischer 344, males, by gavage, site: kidney, lesion: tubular-cell adenoma + tubular-cell adenocarcinoma, dosed 103 weeks, study length 105 weeks
  TD50: 32.4 mg/kg/day
rat, strain Fischer 344, males, by gavage, site: kidney, lesion: tubular-cell adenoma, dosed 103 weeks, study length 105 weeks
  TD50: 43.2 mg/kg/day
rat, strain Fischer 344, males, by gavage, site: lung, lesion: alveolar/bronchiolar adenoma + alveolar/bronchiolar carcinoma, dosed 103 weeks, study length 105 weeks
  TD50: 57.1 mg/kg/day
rat, strain Fischer 344, males, by gavage, site: lung, lesion: alveolar/bronchiolar adenoma, dosed 103 weeks, study length 105 weeks
  TD50: 57.1 mg/kg/day
rat, strain Fischer 344, males, by gavage, site: lung, lesion: alveolar/bronchiolar carcinoma, dosed 103 weeks, study length 105 weeks
  TD50: 488 mg/kg/day
rat, strain Fischer 344, males, by gavage, site: pancreas, lesion: acinar-cell adenoma, dosed 103 weeks, study length 105 weeks
  TD50: 113 mg/kg/day
rat, strain Fischer 344, males, by gavage, site: subcutaneous tissue, lesion: fibroma + sarcoma, NOS, dosed 103 weeks, study length 105 weeks
  TD50: 70.2 mg/kg/day
rat, strain Fischer 344, males, by gavage, site: subcutaneous tissue, lesion: fibroma, dosed 103 weeks, study length 105 weeks
  TD50: 72.6 mg/kg/day
rat, strain Fischer 344, males, by gavage, site: testis, lesion: interstitial-cell tumor, dosed 103 weeks, study length 105 weeks
  TD50: 14.6 mg/kg/day

## OC[C@H]1OC(OC[C@H]2O[C@H](O)[C@H](O)[C@@H](O)[C@@H]2O)[C@H](O)[C@@H](O)[C@@H]1O (stereo partly drawn)
mouse, strain Charles River CD1, females, in feed, site: liver, lesion: one or several types, types not named, dosed 80 weeks, study length 80 weeks
  carcinogen call: negative (inactive)
mouse, strain Charles River CD1, males, in feed, site: liver, lesion: hepatocellular adenoma, dosed 80 weeks, study length 80 weeks
  TD50: 46300 mg/kg/day (inactive)

## CN(C)c1ccc(Cc2ccc(N(C)C)cc2)cc1
mouse, strain B6C3F1, females, in feed, site: any site (literature study), lesion: several types, types named in the paper, dosed 78 weeks, study length 91 weeks
  TD50: 280 mg/kg/day
mouse, strain B6C3F1, females, in feed, site: liver, lesion: hepatocellular adenoma + hepatocellular carcinoma + neoplastic nodule, dosed 78 weeks, study length 91 weeks
  TD50: 207 mg/kg/day
mouse, strain B6C3F1, females, in feed, site: liver, lesion: hepatocellular adenoma + hepatocellular carcinoma, dosed 78 weeks, study length 91 weeks
  TD50: 207 mg/kg/day
mouse, strain B6C3F1, females, in feed, site: lung, lesion: alveolar/bronchiolar adenoma + alveolar/bronchiolar carcinoma, dosed 78 weeks, study length 91 weeks
  TD50: 1080 mg/kg/day
mouse, strain B6C3F1, males, in feed, site: any site (literature study), lesion: several types, types named in the paper, dosed 78 weeks, study length 91 weeks
  TD50: 367 mg/kg/day (inactive)
mouse, strain B6C3F1, males, in feed, site: liver, lesion: hepatocellular adenoma + hepatocellular carcinoma + neoplastic nodule, dosed 78 weeks, study length 91 weeks
  TD50: 558 mg/kg/day
mouse, strain B6C3F1, males, in feed, site: lung, lesion: alveolar/bronchiolar adenoma + alveolar/bronchiolar carcinoma, dosed 78 weeks, study length 91 weeks
  TD50: 1410 mg/kg/day
rat, strain Fischer 344, females, in feed, site: any site (literature study), lesion: several types, types named in the paper, dosed 59 weeks, study length 104 weeks
  TD50: 41.7 mg/kg/day
rat, strain Fischer 344, females, in feed, site: liver, lesion: hepatocellular adenoma + hepatocellular carcinoma + neoplastic nodule, dosed 59 weeks, study length 104 weeks
  TD50: 203 mg/kg/day
rat, strain Fischer 344, females, in feed, site: liver, lesion: neoplastic nodule, dosed 59 weeks, study length 104 weeks
  TD50: 203 mg/kg/day
rat, strain Fischer 344, females, in feed, site: thyroid gland, lesion: follicular-cell adenoma + follicular-cell carcinoma, dosed 59 weeks, study length 104 weeks
  TD50: 16.4 mg/kg/day
rat, strain Fischer 344, females, in feed, site: thyroid gland, lesion: follicular-cell carcinoma, dosed 59 weeks, study length 104 weeks
  TD50: 27.7 mg/kg/day
rat, strain Fischer 344, males, in feed, site: any site (literature study), lesion: several types, types named in the paper, dosed 59 weeks, study length 104 weeks
  TD50: 42.9 mg/kg/day
rat, strain Fischer 344, males, in feed, site: thyroid gland, lesion: follicular-cell adenoma + follicular-cell carcinoma, dosed 59 weeks, study length 104 weeks
  TD50: 16.5 mg/kg/day
rat, strain Fischer 344, males, in feed, site: thyroid gland, lesion: follicular-cell carcinoma, dosed 59 weeks, study length 104 weeks
  TD50: 28.6 mg/kg/day

## CCN(CC)CCOc1ccc(C(=C(Cl)c2ccccc2)c2ccccc2)cc1
mouse, strain C57L/He x 129/Rr x C3HeB/De x SWR/Ly, females, by gavage, site: any site (literature study), lesion: several types, types named in the paper, dosed 69 weeks, study length 69 weeks
  TD50: 3.62 mg/kg/day (inactive)
mouse, strain C57L/He x 129/Rr x C3HeB/De x SWR/Ly, females, by gavage, site: any site (literature study), lesion: several types, types named in the paper, dosed 69 weeks, study length 82 weeks
  carcinogen call: negative (inactive)
mouse, strain C57L/He x 129/Rr x C3HeB/De x SWR/Ly, females, by gavage, site: lung, lesion: one or several types, types not named, dosed 69 weeks, study length 69 weeks
  TD50: 5 mg/kg/day (inactive)
